Laboratory results reported in paper PMC5354814, “In silico and in vitro drug screening identifies new therapeutic approaches for Ewing sarcoma” (Oncotarget, 2016).
Where two headings read alike, the source gives them in different places.

Experiments:
[1] = tested on: A673 cells; assay: siRNA silencing of EWS-FLI1 followed by auranofin treatment (CellTiter-Blue); type: cell-based; settings: then auranofin 72 h
Protocol: To knock down the expression of EWS-FLI1 in A673 Ewing cells, we designed two different siRNAs, corresponding to the sequence within the 3′ downstream half of EWS-FLI1 mRNA (siFLI1-#3) and the sequence of the breakpoint of EWS-FLI1 type I mRNA (siBPEF1) respectively. To examine whether the siRNAs could abolish the expression of EWS-FLI1, the effects of siRNAs on the protein levels of EWS-FLI1 were analyzed by western blot (see Supplementary methods).
(B) Cell viability was assessed by the CellTiter Blue assay in A673 cells treated by siControl, siFLI1-#3 or siBPEF1 for 48 h then followed by the incubation of auranofin ranging from 7.8 nmol/L to 1 μmol/L for 72h. Data are presented as the mean ± SD of three independent experiments performed in triplicate. (C) In vivo studies of auranofin, ganetespib and the combination treatment in an EWS xenograft mice model (n = 12 per group). The percentage of survival rate in control, auranofin treated, ganetespib treated, and auranofin in combination with ganetespib treated groups.
Predict drugs using three computational resolved on the 4–20% Mini-PROTEAN TGXTM approaches Precast Gels (Bio-Rad, Hercules, CA) and transferred onto PVDF membranes (Bio-Rad, Hercules, CA).
Disease-based approach: We used the disease Immunoblotting was done with the following antibodies: signature to query the drug expression database and rabbit polyclonal anti-FLI1 (C-19) (Santa Cruz selected the top 20 negatively scored hits. siRNA-based Biotechnology, Dallas, TX), mouse monoclonal anti-approach: We used the siEWS-FLI1 mediated signature β-actin (Sigma, St. Louis, MO), HRP conjugated goat to query the drug expression database and selected the top anti-rabbit IgG (Cell Signaling, Danvers, MA) and 20 positively scored hits. […] Membranes were developed using ECL database and select the top 20 negatively scored hits. […]
(Lafayette, CO). […] After 72 h of auranofin treatment, cell viability was evaluated using the 18. […]

[2] = Other animal xenograft models, oral auranofin; type: in vivo; settings: unpublished data
From the text: As previously reported, Ridaura® was first developed for the management of rheumatoid arthritis as a disease-modifying anti-rheumatic drug (DMARD). However, the adverse effects and the concerns about the long-term consequences of the immunosuppression induced by Ridaura® led to the decline in its use. […] Therefore, we sought to determine if altering the route of delivery could replicate the dramatic in vitro anticancer activity and improve its efficacy in vivo. Previous studies have shown that orally delivered auranofin is rapidly metabolized and intact auranofin has never been detected in the blood. Thus, studies of the pharmacokinetics of auranofin have involved measurement of gold concentrations. Upon oral administration, 25% of auranofin gets absorbed.

[3] = tested on: ovarian cancer; parameters: method as in PMID 25502607; settings: 3 mg auranofin orally twice per day, 10 patients, 95% CI: 1.3–3.8; cited from earlier work
[4] = mice, 18 months, cited from earlier work
[5] = tested on: mouse lymphoma; parameters: method as in ref 18, ref 19; settings: 313 to 700 ng/mL, in the presence of a rat liver microsomal preparation; cited from earlier work
[6] = tested on: Saccharomyces; parameters: method as in ref 18, ref 19; settings: cited from earlier work
[7] = parameters: method as in ref 18, ref 19; settings: cited from earlier work
[8] = tested on: human neutrophil and monocyte; parameters: method as in ref 19 (a number printed in a supplementary file, which may have a reference list of its own: not looked up in the article's list); settings: 0.1 - 1.0 µg auranofin/mL; cited from earlier work
[9] = tested on: natural killer cells; parameters: method as in ref 19 (a number printed in a supplementary file, which may have a reference list of its own: not looked up in the article's list); settings: cited from earlier work
[10] = parameters: method as in ref 19 (a number printed in a supplementary file, which may have a reference list of its own: not looked up in the article's list); settings: intravenous, 20 mg auranofin/kg; cited from earlier work

CC(=O)OC[C@H]1O[C@@H]([S-])[C@H](OC(C)=O)[C@@H](OC(C)=O)[C@@H]1OC(C)=O.CCP(CC)CC.[Au+] [Auranofin, auranofin]
IC50 ([1]; siBPEF1 48 h, read-out: IC50 (siBPEF1)): > 1000 nM
IC50 ([1]; siControl 48 h, read-out: IC50 (siControl)): 270 ± 20 nM
IC50 ([1]; siFLI1-#3 48 h, read-out: IC50 (siFLI1-#3)): > 1000 nM
efficacy when given orally [2]: not effective
median PFS [3]: 2.8 months
instances of tumors above controls ([4]; oral 1, 3 and 9 mg/kg/day): no statistica ll y significant increase
tumor findings ([4]; oral 1, 3 and 6-9 mg/kg/day): increase in benign
mutation frequencies [5]: induced increases in the mutation frequencies
mutation effects [6]: no m utation effects
mutation effects [7]: no m utation effects
chemotaxis [8]: inhibited
activity of natural killer cells ([9]; high concentrations, 1.0 - 2.5 µg auranofin/mL): inhibited
activity of natural killer cells ([9]; low concentrations, 0.125 - 0.5 µg auranofin/mL): stimulated
48-hour passive cutaneous anaphylaxis [10]: inhibition
